The values that follow are results of earlier work, collected in PubChem BioAssay AID1259409 (Chemical Carcinogenesis Research Information System (CCRIS), 2018).

Values joined by “and” are separate entries in the source; they are usually repeats but may differ in a detail not shown here. Equal entries are not always repeated.

For the data set, the system named is rodent chemically induced tumor inhibition, incidence and multiplicity. Put plainly: CCRIS tumor inhibitor studies. To be noted: Species: RAT, Promoter: NONE USED.

For the compound `CN1C(C(=O)Nc2ccccn2)=C(O)c2ccccc2S1(=O)=O`, the “tumour outcome (control, treated, inhibition, significance)” value is given as 58%, 19%, 67%, p<0.01 (Carcinogen: AZOXYMETHANE, 25843-45-2, Dose [Inhibitor]: 0, 400 PPM IN DIET BEGINNING 1 WK PRIOR TO CARCINOGEN TREATMENT FOR DURATION OF STUDY (STUDY DURATION: 54 WK), Route [Inhibitor]: ORAL, Strain/Sex: F344/MALE, Target Tissue: Type of Lesion: COLON: ADENOCARCINOMA, Dose [Carcinogen]: 15 MG/KG/BW 1/WK FOR 2 WK); 6%, 3%, 50%, not calculated (Carcinogen: AZOXYMETHANE, 25843-45-2, Dose [Inhibitor]: 0, 400 PPM IN DIET BEGINNING 1 WK PRIOR TO CARCINOGEN TREATMENT FOR DURATION OF STUDY (STUDY DURATION: 54 WK), Route [Inhibitor]: ORAL, Strain/Sex: F344/MALE, Target Tissue: Type of Lesion: COLON: ADENOMA, Dose [Carcinogen]: 15 MG/KG/BW 1/WK FOR 2 WK); 72%, 22%, 69%, p<0.001 (Carcinogen: AZOXYMETHANE, 25843-45-2, Dose [Inhibitor]: 0, 400 PPM IN DIET BEGINNING PRIOR TO CARCINOGEN DOSE AND CONTINUING FOR DURATION OF STUDY (STUDY DURATION: 54 WK), Route [Inhibitor]: ORAL, Strain/Sex: F344/MALE, Target Tissue: Type of Lesion: COLON: ADENOCARCINOMA, Dose [Carcinogen]: 15 MG/KG 1/WK FOR 2 WK); 14%, 6%, 57%, not calculated (Carcinogen: AZOXYMETHANE, 25843-45-2, Dose [Inhibitor]: 0, 400 PPM IN DIET BEGINNING PRIOR TO CARCINOGEN DOSE AND CONTINUING FOR DURATION OF STUDY (STUDY DURATION: 54 WK), Route [Inhibitor]: ORAL, Strain/Sex: F344/MALE, Target Tissue: Type of Lesion: COLON: ADENOMA, Dose [Carcinogen]: 15 MG/KG 1/WK FOR 2 WK); 50%, 8%, 84%, p<0.001 (Carcinogen: AZOXYMETHANE, 25843-45-2, Dose [Inhibitor]: 0, 400 PPM IN DIET BEGINNING PRIOR TO CARCINOGEN DOSE AND CONTINUING FOR DURATION OF STUDY (STUDY DURATION: 54 WK), Route [Inhibitor]: ORAL, Strain/Sex: F344/MALE, Target Tissue: Type of Lesion: SMALL INTESTINE: ADENOCARCINOMA, Dose [Carcinogen]: 15 MG/KG 1/WK FOR 2 WK); 3%, 0%, 100%, not calculated (Carcinogen: AZOXYMETHANE, 25843-45-2, Dose [Inhibitor]: 0, 400 PPM IN DIET BEGINNING PRIOR TO CARCINOGEN DOSE AND CONTINUING FOR DURATION OF STUDY (STUDY DURATION: 54 WK), Route [Inhibitor]: ORAL, Strain/Sex: F344/MALE, Target Tissue: Type of Lesion: SMALL INTESTINE: ADENOMA, Dose [Carcinogen]: 15 MG/KG 1/WK FOR 2 WK). The “tumour outcome (control, treated, inhibition, significance)” value reads like this: (Carcinogen: AZOXYMETHANE, 25843-45-2, Dose [Inhibitor]: 0, 400 PPM IN DIET FOR 56 WK BEGINNING 2 WK PRIOR TO CARCINOGEN TREATMENT (STUDY DURATION: 56 WK), Route [Inhibitor]: ORAL, Strain/Sex: F344/MALE, Target Tissue: Type of Lesion: COLON(DISTAL): TUMOR, Dose [Carcinogen]: 15 MG/KG 1/WK FOR 2 WK) 52%, 22%, 58%, p<0.05; (Carcinogen: AZOXYMETHANE, 25843-45-2, Dose [Inhibitor]: 0, 400 PPM IN DIET FOR 56 WK BEGINNING 2 WK PRIOR TO CARCINOGEN TREATMENT (STUDY DURATION: 56 WK), Route [Inhibitor]: ORAL, Strain/Sex: F344/MALE, Target Tissue: Type of Lesion: COLON(PROXIMAL): TUMOR, Dose [Carcinogen]: 15 MG/KG 1/WK FOR 2 WK) 38%, 7%, 82%, p<0.001; (Carcinogen: AZOXYMETHANE, 25843-45-2, Dose [Inhibitor]: 0, 400 PPM IN DIET FOR 56 WK BEGINNING 2 WK PRIOR TO CARCINOGEN TREATMENT (STUDY DURATION: 56 WK), Route [Inhibitor]: ORAL, Strain/Sex: F344/MALE, Target Tissue: Type of Lesion: SMALL INTESTINE(DISTAL): TUMOR, Dose [Carcinogen]: 15 MG/KG 1/WK FOR 2 WK) 12%, 9%, 25%, not significant; (Carcinogen: AZOXYMETHANE, 25843-45-2, Dose [Inhibitor]: 0, 400 PPM IN DIET FOR 56 WK BEGINNING 2 WK PRIOR TO CARCINOGEN TREATMENT (STUDY DURATION: 56 WK), Route [Inhibitor]: ORAL, Strain/Sex: F344/MALE, Target Tissue: Type of Lesion: SMALL INTESTINE(PROXIMAL): TUMOR, Dose [Carcinogen]: 15 MG/KG 1/WK FOR 2 WK) 33%, 9%, 73%, p<0.05; (Carcinogen: INTRARECTAL, Dose [Inhibitor]: N-METHYLNITROSOUREA, 684-93-5, Route [Inhibitor]: 0, 130 MG/KG VEGETABLE DIET (2.5 MG/D) BEGINNING 7 D POST LAST CARCINOGEN TREATMENT AND CONTINUING FOR STUDY DURATION (S, Strain/Sex: CD-1/MALE, Target Tissue: Type of Lesion: INTESTINE: TUMOR) 9/9 (100%), 5/10 (50%), 50%, not calculated; (Carcinogen: METHYLAZOXYMETHANOL, 590-96-5, Dose [Inhibitor]: 8 MG/KG BW/D IN DIET FOR 19 WK STARTING 7 D AFTER CARCINOGEN TREATMENT AND CONTINUING FOR DURATION OF STUDY (STUDY DURAT, Route [Inhibitor]: ORAL, Strain/Sex: SPRAGUE-DAWLEY/MALE, Target Tissue: Type of Lesion: INTESTINES: TUMOR, Dose [Carcinogen]: 30 MG/KG BW ONCE) 9/9 (100%), 4/10 (40%), 60%, not calculated. Moreover, the “tumour outcome (control, treated, inhibition, significance)” value (Carcinogen: METHYLAZOXYMETHANOL, 590-96-5, Dose [Inhibitor]: 8.25 MG/KG BW/D IN DIET FOR 19 WK STARTING 7 D AFTER CARCINOGEN TREATMENT AND CONTINUING FOR DURATION OF STUDY (STUDY DU, Route [Inhibitor]: ORAL, Strain/Sex: SPRAGUE-DAWLEY/MALE, Target Tissue: Type of Lesion: INTESTINES: TUMOR, Dose [Carcinogen]: 30 MG/KG BW ONCE) is 9/10 (90%), 2/10 (20%), 78%, not calculated and 9/10 (90%), 7/11 (64%), 29%, not calculated; the “tumour outcome (control, treated, inhibition, significance)” value (Carcinogen: METHYLAZOXYMETHANOL, 590-96-5, Dose [Inhibitor]: 12.5 MG/KG BW/D IN DIET FOR 19 WK STARTING 7 D AFTER CARCINOGEN TREATMENT AND CONTINUING FOR DURATION OF STUDY (STUDY DU, Route [Inhibitor]: ORAL, Strain/Sex: SPRAGUE-DAWLEY/MALE, Target Tissue: Type of Lesion: INTESTINES: TUMOR, Dose [Carcinogen]: 30 MG/KG BW ONCE) is listed as 8/9 (88%), 3/9 (33%), 63%, not calculated.
